The values below are quoted from earlier work in patent US11701355B2, “Levosimendan for treating pulmonary hypertension with heart failure with preserved ejection fraction (PH-HFpEF)” (Tenax Therapeutics, Inc., priority 2019, dated 2023).

Data set [1] deals with HFpEF patients. The following applies: inhaled 3 times a day for 4 weeks; cited from earlier work.
Data set [2] deals with PH-HFpEF patients. The following applies: after 12 weeks, 52 patients; cited from earlier work.
The test system of the next data set is patients with HFpEF. Conditions: long term treatment, 216 patients; cited from earlier work.
Data set [3] deals with patients with left heart disease. The following applies: in vivo; cited from earlier work.
Data set [4] deals with HFpEF patients. The following applies: in vivo; cited from earlier work.
Data set [5] concerns HFpEF patients. Conditions: in vivo; cited from earlier work. The source holds these as a separate data set.
Another data set relates to patients with PH-HFpEF. The following applies: in vivo; cited from earlier work.
Data set [6] deals with PH-HFpEF patients. The following applies: acute; cited from earlier work.
The test system of data set [7] is phosphodiesterase-3 (PDE3). Conditions: in vitro; cited from earlier work.
The next data set deals with PDE4. Conditions: in vitro; cited from earlier work.
Data set [8] concerns whole cardiomyocytes and isolated contractile apparatus preparations. The following applies: cited from earlier work.
For data set [9] the following is noted: heart failure subjects; cited from earlier work.

Regarding `O=NO` [sodium nitrite], the “primary endpoint of peak oxygen consumption during cardiopulmonary exercise; secondary endpoints” value with HFpEF patients [1] is on record as “unable to demonstrate any improvement”.
For the molecule `CCCc1nn(C)c2c(=O)[nH]c(-c3cc(S(=O)(=O)N4CCN(C)CC4)ccc3OCC)nc12` [sildenafil], in the data set on PH-HFpEF patients [2], the mPAP entry is “no change”. The “six-minute walk time, clinical status, or quality of life” value in the data set on patients with HFpEF is “failed to improve”.
Consider `CCCNS(=O)(=O)Nc1ncnc(OCCOc2ncc(Br)cn2)c1-c1ccc(Br)cc1` [macitentan], for which, in [3], the “hemodynamic parameters (pulmonary vascular resistance, mean pulmonary arterial pressure, pulmonary artery wedge pressure)” value was “no change”.
For `COC(=O)Nc1c(N)nc(-c2nn(Cc3ccccc3F)c3ncc(F)cc23)nc1N` [vericiguat], the primary endpoints result in the data set with HFpEF patients [4] is on record as “no significant changes”.
As for sacubitril/valsartan, in the data set with HFpEF patients [5], the “reduction in the primary endpoint” value is “not statistically significant”.
With `COc1ccccc1Oc1c(NS(=O)(=O)c2ccc(C(C)(C)C)cc2)nc(-c2ncccn2)nc1OCCO` [bosentan], in the data set with patients with PH-HFpEF, the “clinical outcomes compared with placebo” value is “worse clinical outcomes” and the “six minute walk test or echocardiographic evaluation of pulmonary hypertension” value is given as “no improvements”.
As for `COC(=O)N(C)c1c(N)nc(-c2nn(Cc3ccccc3F)c3ncccc23)nc1N` [riociguat], in the data set on PH-HFpEF patients [6], the “TPG or pulmonary vascular resistance” value is given as “no change” and the “primary outcome, mean pulmonary arterial pressure” value was “not achieved”.
As usually defined, the half-life is the time in which the quantity being followed falls by half. Consider `CC(=O)Nc1ccc(C2=NNC(=O)C[C@H]2C)cc1` [OR-1896, (R)-N-(4-(4-methyl-6-oxo-1,4,5,6-tetrahydropyridazin-3-yl)phenyl) acetamide], for which the “potency in the inhibition of PDE3 compared with levosimendan” value in data set [7] was “profoundly less potent”. The “potency in the inhibition of PDE4 compared with levosimendan” value in the data set with PDE4 is recorded as “profoundly less potent”. In addition, the “inotropic effects compared with levosimendan” value in data set [8] is “equipotent to levosimendan”. Moreover, in data set [9], the half-life is 70 to 80 h.
